Key:
histamine H3 receptor = target: T1, histamine H3 receptor (Homo sapiens, UniProt Q9Y5N1); test: Histamine H3 functional antagonist assay ([35S]-GTPγS, membranes); type: biochemical; conditions: histamine at EC80, read-out: average pKi (pKb) at H3 (converted)
T1 construct: expressed in transfected cells; host or cells: CHO K1 cells with pSwitch/pGene (GeneSwitch), clone 3H3, mifepristone-induced; membranes
Method: The histamine H3 cDNA is isolated from its holding vector, pcDNA3.1 TOPO (InVitrogen), by restriction digestion of plasmid DNA with the enzymes BamH1 and Not-1 and is ligated into the inducible expression vector pGene (InVitrogen) digested with the same enzymes. The GeneSwitch™ system (a system where in transgene expression is switched off in the absence of an inducer and switched on in the presence of an inducer) is performed as described in U.S. Pat. Nos. 5,364,791; 5,874,534; and 5,935,934. Ligated DNA is transformed into competent DH5α E. coli host bacterial cells and is plated onto Luria Broth (LB) agar containing Zeocin™ (an antibiotic which allows the selection of cells expressing the sh ble gene which is present on pGene and pSwitch) at 50 μgml^−1. Colonies containing the re-ligated plasmid are identified by restriction analysis. […]
10-14 days post selection, 10 nM Mifepristone (InVitrogen) is added to the culture medium to induce the expression of the receptor. […] Receptor bound antibody is detected by incubation of the cells for 60 min on ice with a goat anti rabbit antibody, conjugated with Alexa 488 fluorescence marker (Molecular Probes). Following two further washes with Sorting Medium, cells are filtered through a […] Filcon™ (BD Biosciences) and then are analysed on a FACS Vantage SE Flow Cytometer fitted with an Automatic Cell Deposition Unit. […]

human H1 receptor = target: T2, human H1 receptor (Homo sapiens, UniProt P35367); test: Histamine H1 functional antagonist assay: determination of functional pKi values (FLIPR); type: cell-based; conditions: CHO cells expressing human H1 receptor, histamine at EC80, FLIPR, read-out: average pKi (pKb) at H1 (converted)
T2 construct: expressed in transfected cells
Method: 1. Generation of Histamine H1 Cell Line The human H1 receptor is cloned using known procedures described in the literature [Biochem. Biophys. Res. Commun., 201(2):894 (1994)]. Chinese hamster ovary (CHO) cells stably expressing the human H1 receptor are generated according to known procedures described in the literature [Br. J. Pharmacol., 117(6):1071 (1996)].
The histamine H1 cell line is seeded into non-coated black-walled clear bottom 384-well tissue culture plates in alpha minimum essential medium (Gibco/Invitrogen, cat no. 22561-021), supplemented with 10% dialysed foetal calf serum (Gibco/Invitrogen cat no. 12480-021) and 2 mM L-glutamine (Gibco/Invitrogen cat no 25030-024) and is maintained overnight at 5% CO2, 37° C.
Excess medium is removed from each well to leave 10 μl. 30 μl loading dye (250 μM Brilliant Black, 2 μM Fluo-4 diluted in Tyrodes buffer+probenecid (145 mM NaCl, 2.5 mM KCl, 10 mM HEPES, 10 mM D-glucose, 1.2 mM MgCl2, 1.5 mM CaCl2, 2.5 mM probenecid, pH adjusted to 7.40 with NaOH 1.0 M)) is added to each well and the plates are incubated for 60 min at 5% CO2, 37° C.
10 μl of test compound, diluted to the required concentration in Tyrodes buffer+probenecid (or 10 μl Tyrodes buffer+probenecid as a control) is added to each well and the plate is incubated for 30 min at 37° C., 5% CO2. The plates are then placed into a FLIPR™ (Molecular. Devices, UK) to monitor cell fluorescence (λex=488 nm, λEM=540 nm) in the manner described in Sullivan et al., (In: Lambert DG (ed.), Calcium Signaling Protocols, New Jersey: Humana Press, 1999, 125-136) before and after the addition of […] at a concentration that results in the final assay concentration of histamine being EC80.
Functional antagonism is indicated by a suppression of histamine induced increase in fluorescence, as measured by the FLIPR™ system (Molecular Devices). By means of concentration effect curves, functional affinities are determined using standard pharmacological mathematical analysis.

T2 sequence (P35367 whole entry): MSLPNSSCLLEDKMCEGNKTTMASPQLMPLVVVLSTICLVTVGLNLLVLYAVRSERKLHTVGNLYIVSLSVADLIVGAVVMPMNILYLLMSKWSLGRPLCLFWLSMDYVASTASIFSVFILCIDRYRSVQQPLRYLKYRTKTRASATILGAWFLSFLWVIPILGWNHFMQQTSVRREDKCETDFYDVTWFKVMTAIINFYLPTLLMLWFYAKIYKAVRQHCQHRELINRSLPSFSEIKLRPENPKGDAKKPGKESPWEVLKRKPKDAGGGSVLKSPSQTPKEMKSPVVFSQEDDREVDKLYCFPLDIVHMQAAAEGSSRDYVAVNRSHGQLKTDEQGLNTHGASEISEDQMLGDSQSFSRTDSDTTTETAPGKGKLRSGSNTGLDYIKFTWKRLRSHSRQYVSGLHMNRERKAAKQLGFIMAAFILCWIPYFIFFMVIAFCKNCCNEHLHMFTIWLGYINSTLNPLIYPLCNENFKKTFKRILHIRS
T1 sequence (Q9Y5N1 whole entry, species assumed): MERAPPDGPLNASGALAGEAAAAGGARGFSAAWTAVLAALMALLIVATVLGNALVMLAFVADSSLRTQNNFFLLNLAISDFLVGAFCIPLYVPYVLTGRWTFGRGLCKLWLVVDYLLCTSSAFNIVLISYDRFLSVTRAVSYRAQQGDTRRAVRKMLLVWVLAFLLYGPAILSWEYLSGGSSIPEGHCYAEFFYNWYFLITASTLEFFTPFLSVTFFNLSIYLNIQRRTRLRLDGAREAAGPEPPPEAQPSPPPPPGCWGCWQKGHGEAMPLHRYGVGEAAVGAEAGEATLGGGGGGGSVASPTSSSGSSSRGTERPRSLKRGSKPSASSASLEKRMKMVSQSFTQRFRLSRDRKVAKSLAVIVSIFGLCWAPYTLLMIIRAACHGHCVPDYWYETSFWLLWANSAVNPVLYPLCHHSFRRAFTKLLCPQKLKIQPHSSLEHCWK

## COCCC(=O)NCCN1CCC[C@@H]1Cn1nc(Cc2ccc(Cl)cc2)c2ccccc2c1=O.O=CO [Example 35, N-[2-((2R)-2-{[4-[(4-Chlorophenyl)methyl]-1-oxo-2(1H)-phthalazinyl]methyl}-1-pyrrolidinyl)ethyl]-3-(methyloxy)propanamide, formate salt]
Histamine H3 receptor
  Ki: > 316 nM
Human H1 receptor
  Ki: < 316 nM

## Cl.O=C(CC(F)(F)F)NCCN1CCC[C@@H]1Cn1nc(Cc2ccc(Cl)cc2)c2ccccc2c1=O [Example 36a, N-[2-((2R)-2-{[4-[(4-Chlorophenyl)methyl]-1-oxo-2(1H)-phthalazinyl]methyl}-1-pyrrolidinyl)ethyl]-3,3,3-trifluoropropanamide, hydrochloride]
Histamine H3 receptor
  Ki: > 316 nM
Human H1 receptor
  Ki: < 31.6 nM

Reference: patent publication US20100184770A1, “COMPOUNDS” (Glaxo Group Limited, priority 2006, published 2010)
